pKi: −log10 of the molar value. Where a name gives a salt, the structure may show the parent alone. Read-outs that look alike come from different tables or passages of the source.
Columns and labels:
[1] = molecular target: T1, human dopamine D3 receptors (Homo sapiens, UniProt P35462); assay: Dopamine D3 receptor binding ([125I]-iodosulpride displacement)
T1 construct: expressed in transfected cells; host or cells: HEK-293
Protocol: (§1) Each assay mixture was run in triplicate. • The incubation buffer contained 50 mM tris, 120 mM NaCl, 5 mM KCl, 2 mM CaCl2, 2 mM MgCl2 and 0.1% bovine serum albumin, 10 μM quinolone and 0.1% ascorbic acid (prepared fresh daily). […] Each assay mixture was run in triplicate. • The incubation buffer contained 50 mM tris, 120 mM NaCl, 5 mM KCl, 2 mM CaCl2, 2 mM MgCl2 and 0.1% bovine serum albumin. The buffer was adjusted to pH 7.4 with HCl. • Measurement and Analysis: • After having been incubated at 25° C. for 60 minutes, the assay mixtures were filtered through a Whatman GF/B glass fiber filter under vacuum using a cell collecting device. The filters were transferred to scintillation viols using a filter transfer system. After 4 ml of Ultima Gold® (Packard) have been added, the samples were shaken for one hour and the radioactivity was then counted in a Beta-Counter (Packard, Tricarb 2000 or 2200CA).

[2] = molecular target: T2, human dopamine D2L receptors (long isoform) (Homo sapiens, UniProt P14416); assay: Dopamine D2L receptor binding ([125I] iodospiperone displacement); details: selectivity ratio of receptor binding constants, D2L versus D3, HEK-293 membranes
T2 construct: expressed in transfected cells; host or cells: HEK-293
T2 sequence (P14416 whole entry, canonical isoform): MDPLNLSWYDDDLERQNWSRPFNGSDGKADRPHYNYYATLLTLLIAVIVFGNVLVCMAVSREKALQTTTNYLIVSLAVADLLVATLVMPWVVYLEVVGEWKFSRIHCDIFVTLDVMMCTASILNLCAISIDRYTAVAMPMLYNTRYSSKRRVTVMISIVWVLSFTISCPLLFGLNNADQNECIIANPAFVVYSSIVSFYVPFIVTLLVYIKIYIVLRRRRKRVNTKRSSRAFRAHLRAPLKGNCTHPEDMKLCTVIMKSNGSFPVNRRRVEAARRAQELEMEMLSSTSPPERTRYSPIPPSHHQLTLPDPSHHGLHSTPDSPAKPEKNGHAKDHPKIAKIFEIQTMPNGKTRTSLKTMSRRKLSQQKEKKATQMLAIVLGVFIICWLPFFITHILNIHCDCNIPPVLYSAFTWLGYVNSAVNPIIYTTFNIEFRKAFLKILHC
Protocol: as §1

[3] = membranes of HEK-293 cells stably expressing human D3 receptor, 0.1 nM [125I]-iodosulpride, 25° C., 60 minutes, read-out: Ki(D3)*

T1 sequence (P35462 whole entry): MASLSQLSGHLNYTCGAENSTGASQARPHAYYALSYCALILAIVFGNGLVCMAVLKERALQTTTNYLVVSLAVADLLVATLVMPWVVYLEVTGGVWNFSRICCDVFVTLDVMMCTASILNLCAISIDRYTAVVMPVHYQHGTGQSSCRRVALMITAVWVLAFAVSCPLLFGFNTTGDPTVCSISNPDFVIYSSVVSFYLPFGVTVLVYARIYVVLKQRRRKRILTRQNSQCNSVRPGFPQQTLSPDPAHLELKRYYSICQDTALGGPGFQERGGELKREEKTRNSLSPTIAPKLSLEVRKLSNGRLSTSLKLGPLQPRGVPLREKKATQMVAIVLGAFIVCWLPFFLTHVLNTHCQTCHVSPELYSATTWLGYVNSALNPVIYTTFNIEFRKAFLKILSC

| pKi [1, 3] | Structure (SMILES) | Ki(D2)*/Ki(D3)* [2] | pKi [1] |
| --- | --- | --- | --- |
| 8.32 | CCCNCCc1ccc(CS(=O)(=O)c2ccc(C(C)C)cc2)cc1.Cl [Example 28, {2-[4-(4-Isopropyl-benzenesulfonylmethyl)-phenyl]-ethyl}-propyl-amine×HCl] | 130 | – |
| 7.19 | C=CCN(CC=C)CCc1ccc(NS(=O)(=O)c2ccc(OC(F)(F)F)cc2)cc1 [Example 20, N-[4-(2-Diallylamino-ethyl)-phenyl]-4-trifluoromethoxy-benzenesulfonamide×HCl] | 65 | – |
| – | CCCN[C@@H](C)Cc1ccc(NS(=O)(=O)c2ccc(OC(F)(F)F)cc2)cc1 [Example 1, N-[4-((S)-2-Propylamino-propyl)-phenyl]-4-trifluoromethoxy-benzenesulfonamide] | 41 | 7.37 |
| – | C=CCNCCc1cccc(NS(=O)(=O)c2ccc(C(C)C)cc2)c1 [Example 21, N-[3-(2-Allylamino-ethyl)-phenyl]-4-isopropyl-benzenesulfonamide, reference compound] | 62 | 7.66 |
| 7.38 | CCCNCCc1ccc(NS(=O)(=O)c2ccc(C(C)C)cc2)cn1 [Example 10, 4-Isopropyl-N-[6-(2-propylamino-ethyl)-pyridin-3-yl]-benzenesulfonamide×2HCl] | 53 | – |
| 8.57 | C=CCN(CC=C)CCc1ccc(NS(=O)(=O)c2ccc(C(C)C)cc2)cc1 [Example 19, N-[4-(2-Diallylamino-ethyl)-phenyl]-4-isopropyl-benzenesulfonamide×HCl] | 42 | – |
| – | CCCN[C@H](C)Cc1ccc(NS(=O)(=O)c2ccc(OC(F)(F)F)cc2)cc1 [Example 2, N-[4-((R)-2-Propylamino-propyl)-phenyl]-4-trifluoromethoxy-benzenesulfonamide] | 57 | 7.68 |
| – | CCCN(CCC)CCc1ccc(CS(=O)(=O)c2ccc(OC(F)(F)F)cc2)cc1 [Example 26, Dipropyl-{2-[4-(4-trifluoromethoxy-benzenesulfonylmethyl)-phenyl]-ethyl}-dipropyl-amine×HCl] | 170 | 8.41 |
| 7.74 | CC(C)c1ccc(S(=O)(=O)Nc2ccc(CCNCC3CC3)cc2)cc1 [Example 7, N-{4-[2-(Cyclopropylmethyl-amino)-ethyl]-phenyl}-4-isopropyl-benzenesulfonamide×HCl] | 23 | – |
| 7.47 | C=CCNCCc1ccc(N(C)S(=O)(=O)c2ccc(OC(F)(F)F)cc2)cc1 [Example 17, N-[4-(2-Allylamino-ethyl)-phenyl]-N-methyl-4-trifluoromethoxy-benzenesulfonamide×HCl] | 75 | – |
| 8.70 | CCCN(CCC)CCc1ccc(N(C)S(=O)(=O)c2ccc(C(C)C)cc2)cc1 [Example 9, N-[4-(2-Dipropylamino-ethyl)-phenyl]-4-isopropyl-N-methyl-benzenesulfonamide×HCl] | 40 | – |
| – | C=CCN(CC=C)CCc1ccc(CS(=O)(=O)c2ccc(C(C)C)cc2)cc1 [Example 23, Diallyl-{2-[4-(4-isopropyl-benzenesulfonylmethyl)-phenyl]-ethyl}-amine×HCl] | 59 | 8.08 |
| 9.24 | CCCN1CCCC1Cc1ccc(NS(=O)(=O)c2ccc(C(C)C)cc2)cc1 (centres unmarked) [Example 11, 4-Isopropyl-N-[4-(1-propyl-pyrrolidin-2-ylmethyl)-phenyl]-benzenesulfonamide] | 16 | – |
| 9.70 | CCCN(CCC)CCc1ccc(NS(=O)(=O)c2ccc(C(C)C)cc2)cc1 [Example 8, N-[4-(2-Dipropylamino-ethyl)-phenyl]-4-isopropyl-benzenesulfonamide×HCl] | 54 | – |
| 9.30 | CCCN(CCC)CCc1ccc(CS(=O)(=O)c2ccc(C(C)C)cc2)cc1 [Example 25, Dipropyl-{2-[4-(4-isopropyl-benzenesulfonylmethyl)-phenyl]-ethyl}-amine×HCl] | 175 | – |

| Structure (SMILES) | pKi [1, 3] | Ki(D2)*/Ki(D3)* [2] | pKi [1] |
| --- | --- | --- | --- |
| CCCNC(C)Cc1ccc(NS(=O)(=O)c2ccc(C(C)C)cc2)cc1.Cl (centres unmarked) [Example 3, 4-Isopropyl-N-[4-(2-propylamino-propyl)-phenyl]-benzenesulfonamide×HCl] | 8.55 | 33 | – |
| C=CCNCCc1ccc(NS(=O)(=O)c2ccc(C(C)C)cc2)cc1.Cl [Example 13, N-[4-(2-Allylamino-ethyl)-phenyl]-4-isopropyl-benzenesulfonamide×HCl] | 8.77 | 74 | – |
| C=CCNCCc1ccc(N(C)S(=O)(=O)c2ccc(C(C)C)cc2)cc1.Cl [Example 14, N-[4-(2-Allylamino-ethyl)-phenyl]-4-isopropyl-N-methyl-benzenesulfonamide×HCl] | 7.57 | 40 | – |
| C=CCNCCc1ccc(N(CCC)S(=O)(=O)c2ccc(OC(F)(F)F)cc2)cc1.Cl [Example 18, N-[4-(2-Allylamino-ethyl)-phenyl]-N-propyl-4-trifluoromethoxy-benzenesulfonamide×HCl] | 7.43 | 24 | – |
| C=CCNCCc1ccc(NS(=O)(=O)c2ccc(OC(F)(F)F)cc2)cc1.Cl [Example 16, N-[4-(2-Allylamino-ethyl)-phenyl]-4-trifluoromethoxy-benzenesulfonamide×HCl] | 7.51 | 79 | – |
| CCCNCCc1ccc(NS(=O)(=O)c2ccc(C(C)C)cc2)cc1.Cl [Example 6, 4-Isopropyl-N-[4-(2-propylamino-ethyl)-phenyl]-benzenesulfonamide×HCl] | 8.66 | 22 | – |
| C=CCNCCc1ccc(N(CCC)S(=O)(=O)c2ccc(C(C)C)cc2)cc1.Cl [Example 15, N-[4-(2-Allylamino-ethyl)-phenyl]-4-isopropyl-N-propyl-benzenesulfonamide×HCl] | 7.66 | 22 | – |

Reference: patent US8232426B2, “Aminoethylaromatic compounds suitable for treating disorders that respond to modulation of the dopamine D3 receptor” (Abbott GmbH & Co. KG, priority 2004, dated 2012)
